Tested on: Acinetobacter baumannii strains
Assay: Antibiotic susceptibility test (CLSI disk diffusion test method, read per CLSI 2016); as to antibiotic susceptibility S/I/R: key: ‘S’ means susceptible; ‘I’ means intermediate; ‘R’ means resistant; as to susceptibility category (S/I/R): key: ‘S’ means susceptible; ‘I’ means intermediate; ‘R’ means resistant
Assay type: cell-based
Set-up: antibiotic susceptibility test value / susceptibility test value (number given before S/I/R) / antibiotic susceptibility value: unit not given here

ampicillin-sulbactam
antibiotic susceptibility value (host strain YMC16/01/R123): 32
susceptibility category (S/I/R) (host strain YMC16/01/R123): R
susceptibility test value (number given before S/I/R) (host strain YMC16/01/R123): 32
antibiotic susceptibility S/I/R (host strain YMC16/01/R198): S
antibiotic susceptibility value (host strain YMC16/01/R198): 8
susceptibility category (S/I/R) (host strain YMC16/01/R198): S
susceptibility test value (number given before S/I/R) (host strain YMC16/01/R198): 8
antibiotic susceptibility value (host strain YMC16/01/R353): 16
susceptibility category (S/I/R) (host strain YMC16/01/R353): I
susceptibility test value (number given before S/I/R) (host strain YMC16/01/R353): 16
antibiotic susceptibility S/I/R (host strain YMC16/01/R380): R
antibiotic susceptibility value (host strain YMC16/01/R380): 32
susceptibility category (S/I/R) (host strain YMC16/01/R380): R
susceptibility test value (number given before S/I/R) (host strain YMC16/01/R380): 32
antibiotic susceptibility S/I/R (host strain YMC16/01/R397): R
antibiotic susceptibility value (host strain YMC16/01/R397): 32
susceptibility category (S/I/R) (host strain YMC16/01/R397): R
susceptibility test value (number given before S/I/R) (host strain YMC16/01/R397): 32
antibiotic susceptibility value (host strain YMC16/01/R405): 16
susceptibility category (S/I/R) (host strain YMC16/01/R405): I
susceptibility test value (number given before S/I/R) (host strain YMC16/01/R405): 16
antibiotic susceptibility S/I/R (host strain YMC16/03/R4461): S
antibiotic susceptibility value (host strain YMC16/03/R4461): 4
susceptibility category (S/I/R) (host strain YMC16/03/R4461): S
susceptibility test value (number given before S/I/R) (host strain YMC16/03/R4461): 4
antibiotic susceptibility value (host strain YMC16/05/R2210): 16
susceptibility category (S/I/R) (host strain YMC16/05/R2210): I
susceptibility test value (number given before S/I/R) (host strain YMC16/05/R2210): 16
antibiotic susceptibility value (host strain YMC16/07/R2512): 16
susceptibility category (S/I/R) (host strain YMC16/07/R2512): I
susceptibility test value (number given before S/I/R) (host strain YMC16/07/R2512): 16
antibiotic susceptibility S/I/R (host strain YMC16/09/R2471): R
antibiotic susceptibility value (host strain YMC16/09/R2471): 32
susceptibility category (S/I/R) (host strain YMC16/09/R2471): R
susceptibility test value (number given before S/I/R) (host strain YMC16/09/R2471): 32
antibiotic susceptibility value (host strain YMC16/10/R2537): 16
susceptibility category (S/I/R) (host strain YMC16/10/R2537): I
susceptibility test value (number given before S/I/R) (host strain YMC16/10/R2537): 16
antibiotic susceptibility S/I/R (host strain YMC16/12/B11422): R
antibiotic susceptibility value (host strain YMC16/12/B11422): 32
susceptibility category (S/I/R) (host strain YMC16/12/B11422): R
susceptibility test value (number given before S/I/R) (host strain YMC16/12/B11422): 32
antibiotic susceptibility S/I/R (host strain YMC16/12/B11449): R
antibiotic susceptibility value (host strain YMC16/12/B11449): 32
susceptibility category (S/I/R) (host strain YMC16/12/B11449): R
susceptibility test value (number given before S/I/R) (host strain YMC16/12/B11449): 32
antibiotic susceptibility value (host strain YMC16/12/B13325): 16
susceptibility category (S/I/R) (host strain YMC16/12/B13325): I
susceptibility test value (number given before S/I/R) (host strain YMC16/12/B13325): 16
antibiotic susceptibility S/I/R (host strain YMC16/12/P503): R
antibiotic susceptibility value (host strain YMC16/12/P503): 32
susceptibility category (S/I/R) (host strain YMC16/12/P503): R
susceptibility test value (number given before S/I/R) (host strain YMC16/12/P503): 32
antibiotic susceptibility S/I/R (host strain YMC16/12/R4637): R
antibiotic susceptibility value (host strain YMC16/12/R4637): 32
susceptibility category (S/I/R) (host strain YMC16/12/R4637): R
susceptibility test value (number given before S/I/R) (host strain YMC16/12/R4637): 32
antibiotic susceptibility S/I/R (host strain YMC17/01/B8053): S
antibiotic susceptibility value (host strain YMC17/01/B8053): 8
susceptibility category (S/I/R) (host strain YMC17/01/B8053): S
susceptibility test value (number given before S/I/R) (host strain YMC17/01/B8053): 8
antibiotic susceptibility value (host strain YMC17/01/B10087): 16
susceptibility category (S/I/R) (host strain YMC17/01/B10087): I
susceptibility test value (number given before S/I/R) (host strain YMC17/01/B10087): 16
antibiotic susceptibility value (host strain YMC17/01/B12075): 16
susceptibility category (S/I/R) (host strain YMC17/01/B12075): I
susceptibility test value (number given before S/I/R) (host strain YMC17/01/B12075): 16
antibiotic susceptibility S/I/R (host strain YMC17/01/B13454): R
antibiotic susceptibility value (host strain YMC17/01/B13454): 32
susceptibility category (S/I/R) (host strain YMC17/01/B13454): R
susceptibility test value (number given before S/I/R) (host strain YMC17/01/B13454): 32
antibiotic susceptibility value (host strain YMC17/01/P518): 16
susceptibility category (S/I/R) (host strain YMC17/01/P518): I
susceptibility test value (number given before S/I/R) (host strain YMC17/01/P518): 16
antibiotic susceptibility S/I/R (host strain YMC17/01/R2812): R
antibiotic susceptibility value (host strain YMC17/01/R2812): 32
susceptibility category (S/I/R) (host strain YMC17/01/R2812): R
susceptibility test value (number given before S/I/R) (host strain YMC17/01/R2812): 32
antibiotic susceptibility S/I/R (host strain YMC17/02/B14): R
antibiotic susceptibility value (host strain YMC17/02/B14): 32
susceptibility category (S/I/R) (host strain YMC17/02/B14): R
susceptibility test value (number given before S/I/R) (host strain YMC17/02/B14): 32
antibiotic susceptibility value (host strain YMC17/02/B87): 16
susceptibility category (S/I/R) (host strain YMC17/02/B87): I
susceptibility test value (number given before S/I/R) (host strain YMC17/02/B87): 16
antibiotic susceptibility S/I/R (host strain YMC17/02/B721): R
antibiotic susceptibility value (host strain YMC17/02/B721): 32
susceptibility category (S/I/R) (host strain YMC17/02/B721): R
susceptibility test value (number given before S/I/R) (host strain YMC17/02/B721): 32
antibiotic susceptibility S/I/R (host strain YMC17/02/B4039): R
antibiotic susceptibility value (host strain YMC17/02/B4039): 32
susceptibility category (S/I/R) (host strain YMC17/02/B4039): R
susceptibility test value (number given before S/I/R) (host strain YMC17/02/B4039): 32
antibiotic susceptibility S/I/R (host strain YMC17/02/B4520): R
antibiotic susceptibility value (host strain YMC17/02/B4520): 32
susceptibility category (S/I/R) (host strain YMC17/02/B4520): R
susceptibility test value (number given before S/I/R) (host strain YMC17/02/B4520): 32
antibiotic susceptibility S/I/R (host strain YMC17/02/B4864): S
antibiotic susceptibility value (host strain YMC17/02/B4864): 2
susceptibility category (S/I/R) (host strain YMC17/02/B4864): S
susceptibility test value (number given before S/I/R) (host strain YMC17/02/B4864): 2
antibiotic susceptibility value (host strain YMC17/02/B8414): 16
susceptibility category (S/I/R) (host strain YMC17/02/B8414): I
susceptibility test value (number given before S/I/R) (host strain YMC17/02/B8414): 16
antibiotic susceptibility value (host strain YMC17/02/P523): 16
susceptibility category (S/I/R) (host strain YMC17/02/P523): I
susceptibility test value (number given before S/I/R) (host strain YMC17/02/P523): 16
antibiotic susceptibility S/I/R (host strain YMC17/02/R541): R
antibiotic susceptibility value (host strain YMC17/02/R541): 32
susceptibility category (S/I/R) (host strain YMC17/02/R541): R
susceptibility test value (number given before S/I/R) (host strain YMC17/02/R541): 32
antibiotic susceptibility S/I/R (host strain YMC17/02/R2392): R
antibiotic susceptibility value (host strain YMC17/02/R2392): 32
susceptibility category (S/I/R) (host strain YMC17/02/R2392): R
susceptibility test value (number given before S/I/R) (host strain YMC17/02/R2392): 32
antibiotic susceptibility value (host strain YMC17/03/B4730): 16
susceptibility category (S/I/R) (host strain YMC17/03/B4730): I
susceptibility test value (number given before S/I/R) (host strain YMC17/03/B4730): 16
antibiotic susceptibility S/I/R (host strain YMC17/03/B5000): R
antibiotic susceptibility value (host strain YMC17/03/B5000): 32
susceptibility category (S/I/R) (host strain YMC17/03/B5000): R
susceptibility test value (number given before S/I/R) (host strain YMC17/03/B5000): 32
antibiotic susceptibility S/I/R (host strain YMC17/03/P971): S
antibiotic susceptibility value (host strain YMC17/03/P971): 8
susceptibility category (S/I/R) (host strain YMC17/03/P971): S
susceptibility test value (number given before S/I/R) (host strain YMC17/03/P971): 8
antibiotic susceptibility value (host strain YMC17/03/R348): 16
susceptibility category (S/I/R) (host strain YMC17/03/R348): I
susceptibility test value (number given before S/I/R) (host strain YMC17/03/R348): 16
antibiotic susceptibility S/I/R (host strain YMC17/03/R585): R
antibiotic susceptibility value (host strain YMC17/03/R585): 32
susceptibility category (S/I/R) (host strain YMC17/03/R585): R
susceptibility test value (number given before S/I/R) (host strain YMC17/03/R585): 32
antibiotic susceptibility S/I/R (host strain YMC17/03/R1888): S
antibiotic susceptibility value (host strain YMC17/03/R1888): 8
susceptibility category (S/I/R) (host strain YMC17/03/R1888): S
susceptibility test value (number given before S/I/R) (host strain YMC17/03/R1888): 8
antibiotic susceptibility value (host strain YMC17/03/R3279): 16
susceptibility category (S/I/R) (host strain YMC17/03/R3279): I
susceptibility test value (number given before S/I/R) (host strain YMC17/03/R3279): 16
antibiotic susceptibility value (host strain YMC17/03/R4077): 16
susceptibility category (S/I/R) (host strain YMC17/03/R4077): I
susceptibility test value (number given before S/I/R) (host strain YMC17/03/R4077): 16
antibiotic susceptibility value (host strain YMC17/03/R4607): 16
susceptibility category (S/I/R) (host strain YMC17/03/R4607): I
susceptibility test value (number given before S/I/R) (host strain YMC17/03/R4607): 16
antibiotic susceptibility value (host strain YMC17/04/R488): 16
susceptibility category (S/I/R) (host strain YMC17/04/R488): I
susceptibility test value (number given before S/I/R) (host strain YMC17/04/R488): 16
antibiotic susceptibility value (host strain YMC17/04/R640): 16
susceptibility category (S/I/R) (host strain YMC17/04/R640): I
susceptibility test value (number given before S/I/R) (host strain YMC17/04/R640): 16
antibiotic susceptibility value (host strain YMC/17/05/R1095): 16
susceptibility category (S/I/R) (host strain YMC/17/05/R1095): I
susceptibility test value (number given before S/I/R) (host strain YMC/17/05/R1095): 16

— US20240000872A1, “NOVEL BACTERIOPHAGE THAT LYSES ACINETOBACTER GENUS BACTERIA HAVING RESISTANCE TO ANTIBIOTICS” (priority 2020, published 2024)
